Assay results: ChEMBL document CHEMBL1152751, “2,5-Disubstituted tetrahydrofurans as selective serotonin re-uptake inhibitors” (Bioorg Med Chem, 2009)
pIC50, pKi: −log10 of the molar value. Calls of active or inactive are those of the source. The rule behind the calls is not given here.

Tests used:
[1] = biological target: T1, Sodium-dependent dopamine transporter (Homo sapiens, UniProt Q01959); assay: biochemical; format: cell-based, HEK293
Description: Displacement of [125I]RTI55 from human DAT expressed in HEK cells

[2] = biological target: T1, Sodium-dependent dopamine transporter; assay: Inhibition of [3H]dopamine reuptake at human DAT expressed in HEK cells; format: cell-based, HEK293
[3] = biological target: T2, Sodium-dependent noradrenaline transporter (Homo sapiens, UniProt P23975); assay: Inhibition of [3H]norepinephrine reuptake at human NET expressed in HEK cells; format: cell-based, HEK293
[4] = biological target: T3, Sodium-dependent serotonin transporter (Homo sapiens, UniProt P31645); assay: Inhibition of [3H]serotonin reuptake at human SERT expressed in HEK cells; format: cell-based, HEK293
[5] = test system: Mus musculus; assay: Antidepressant activity in BALB/c mouse assessed as decrease in duration of immobility at 10 mg/kg, ip pretreated 30 mins before test by forced swimming test; format: functional, organism-based; parameters: dose 10 mg/kg
[6] = biological target: T3, Sodium-dependent serotonin transporter; assay: biochemical; format: cell-based, HEK293
Description: Displacement of [125I]RTI55 from human SERT expressed in HEK cells

[7] = biological target: T2, Sodium-dependent noradrenaline transporter; assay: biochemical; format: cell-based, HEK293
Description: Displacement of [125I]RTI55 from human NET expressed in HEK cells

[8] = test system: Mus musculus; assay: Antidepressant activity in BALB/c mouse assessed as change in duration of immobility at 20 mg/kg, ip pretreated 30 mins before test by forced swimming test; format: functional, organism-based; parameters: dose 20 mg/kg
[9] = test system: Mus musculus; assay: Antidepressant activity in ICR mouse assessed as change in duration of immobility at 10 mg/kg, ip pretreated 30 mins before test by forced swimming test; format: functional, organism-based; parameters: dose 10 mg/kg
[10] = Metabolic stability assessed as half life in mouse liver microsomes; format: ADME, Microsome
[11] = Metabolic stability assessed as half life in rat liver microsomes; format: ADME, Microsome

T2 sequence (P23975 whole entry): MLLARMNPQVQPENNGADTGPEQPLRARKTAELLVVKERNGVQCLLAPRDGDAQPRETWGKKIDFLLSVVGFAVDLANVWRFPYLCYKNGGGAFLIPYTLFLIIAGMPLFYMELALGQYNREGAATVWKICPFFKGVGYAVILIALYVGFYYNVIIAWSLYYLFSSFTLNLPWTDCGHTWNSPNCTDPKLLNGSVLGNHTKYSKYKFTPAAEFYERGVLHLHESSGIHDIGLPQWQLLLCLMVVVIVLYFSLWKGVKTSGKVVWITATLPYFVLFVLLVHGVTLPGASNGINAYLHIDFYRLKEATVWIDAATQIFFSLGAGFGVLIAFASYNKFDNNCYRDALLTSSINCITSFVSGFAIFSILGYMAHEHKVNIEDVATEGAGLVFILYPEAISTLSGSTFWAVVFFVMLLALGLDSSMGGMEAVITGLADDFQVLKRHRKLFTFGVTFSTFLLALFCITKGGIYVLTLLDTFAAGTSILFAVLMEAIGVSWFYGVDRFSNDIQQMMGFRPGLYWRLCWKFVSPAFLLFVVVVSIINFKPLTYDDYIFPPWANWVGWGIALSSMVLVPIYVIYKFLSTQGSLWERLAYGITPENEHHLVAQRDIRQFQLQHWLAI
T3 sequence (P31645 whole entry): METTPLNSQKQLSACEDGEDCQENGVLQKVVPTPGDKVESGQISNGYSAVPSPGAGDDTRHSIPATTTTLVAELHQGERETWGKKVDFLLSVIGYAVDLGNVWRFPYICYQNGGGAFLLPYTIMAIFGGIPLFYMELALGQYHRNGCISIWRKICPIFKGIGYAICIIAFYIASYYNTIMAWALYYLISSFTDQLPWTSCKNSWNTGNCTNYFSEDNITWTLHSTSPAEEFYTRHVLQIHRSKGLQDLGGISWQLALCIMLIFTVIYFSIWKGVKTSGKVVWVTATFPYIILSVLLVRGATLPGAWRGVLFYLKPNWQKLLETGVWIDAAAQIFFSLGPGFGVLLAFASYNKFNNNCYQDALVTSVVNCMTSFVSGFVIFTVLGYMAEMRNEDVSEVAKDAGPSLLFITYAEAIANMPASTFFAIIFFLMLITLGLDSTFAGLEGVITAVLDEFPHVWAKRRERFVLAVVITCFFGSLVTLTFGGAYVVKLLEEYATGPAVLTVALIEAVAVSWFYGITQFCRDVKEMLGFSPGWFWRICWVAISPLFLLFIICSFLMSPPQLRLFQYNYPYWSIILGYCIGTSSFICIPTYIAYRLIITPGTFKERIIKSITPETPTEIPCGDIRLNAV
T1 sequence (Q01959 whole entry): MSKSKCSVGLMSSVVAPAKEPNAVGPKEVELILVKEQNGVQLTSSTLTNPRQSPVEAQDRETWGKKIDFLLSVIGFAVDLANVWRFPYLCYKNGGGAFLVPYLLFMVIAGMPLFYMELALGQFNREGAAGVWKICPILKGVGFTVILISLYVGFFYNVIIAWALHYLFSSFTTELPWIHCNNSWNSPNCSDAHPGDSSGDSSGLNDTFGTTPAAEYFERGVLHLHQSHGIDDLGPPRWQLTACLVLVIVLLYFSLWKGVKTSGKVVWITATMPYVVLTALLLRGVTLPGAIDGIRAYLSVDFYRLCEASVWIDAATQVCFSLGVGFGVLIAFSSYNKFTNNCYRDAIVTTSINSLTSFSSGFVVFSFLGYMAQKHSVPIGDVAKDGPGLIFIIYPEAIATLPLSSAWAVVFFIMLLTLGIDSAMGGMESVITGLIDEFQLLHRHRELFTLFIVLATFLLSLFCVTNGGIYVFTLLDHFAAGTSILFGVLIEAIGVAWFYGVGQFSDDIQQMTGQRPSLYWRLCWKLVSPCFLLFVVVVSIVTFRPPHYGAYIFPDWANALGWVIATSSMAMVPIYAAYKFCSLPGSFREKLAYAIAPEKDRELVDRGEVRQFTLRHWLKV

COc1ccc(F)cc1[C@@H]1CC[C@H](CCN)O1 (relative stereo)
pKi [1]: < 5.00
pIC50 [2]: < 5.00

COc1ccc(F)cc1[C@H]1CC[C@H](CCN)O1
pKi [1]: 4.48
pIC50 [2]: < 5.00

NCC1CCC(CCc2cccnc2)O1 (configuration not stated)
pKi [1]: < 5.00
pIC50 [2]: < 5.00
pIC50 [3]: < 5.00
pIC50 [4]: 5.57

COc1ccc(F)cc1CCCC1CCC(CCN)O1 (mixture of isomers)
Activity [5]: inactive

NCCC1CCC(c2ccco2)O1 (configuration not stated)
pKi [1]: < 5.00
pIC50 [2]: < 5.00
pKi [6]: < 5.00
pKi [7]: < 5.00
pIC50 [3]: < 5.00
pIC50 [4]: < 5.00

COc1ccc(F)cc1CCC[C@@H]1CC[C@H](CN)O1 (relative stereo)
pKi [1]: 5.34
pIC50 [2]: 5.20
pKi [6]: 8.55
pIC50 [4]: 8.59

COc1ccc(F)cc1C[C@H]1CC[C@H](CCN)O1 (relative stereo)
pIC50 [3]: 5.75

COc1ccc(C2CCC(CN)O2)cc1 (configuration not stated)
pKi [1]: < 5.00

COc1ccc2ccccc2c1CCC1CCC(CCN)O1 (configuration not stated)
pKi [1]: < 5.00
pKi [7]: < 5.00

NCC1CCC(c2ccc3ccccc3c2)O1 (configuration not stated)
pKi [7]: < 5.00
pIC50 [4]: 8.40

CNCCC(Oc1ccc(C(F)(F)F)cc1)c1ccccc1 (configuration not stated)
Activity [8]: inactive
Activity [5]: Active

COc1ccc(F)cc1C[C@@H]1CC[C@H](CN)O1 (relative stereo)
pIC50 [2]: 4.73

COc1ccc(F)cc1[C@H]1CC[C@H](CN)O1 (relative stereo)
pKi [1]: < 5.00
pIC50 [2]: < 5.00

NCC1CCC(c2ccc(Br)cc2)O1 (configuration not stated)
pKi [7]: < 5.00

COc1ccc(F)cc1CCC1CCC(CCN)O1 (configuration not stated)
Activity [9]: inactive
half-life [10]: 56 min

COc1ccc(F)cc1C[C@H]1CC[C@H](CN)O1 (relative stereo)
pIC50 [2]: 4.54

CNCCC1CCC(CCc2cc(F)ccc2OC)O1 (configuration not stated)
half-life [11]: 129 min
half-life [10]: 58.5 min

COc1ccc(F)cc1CCCC[C@H]1CC[C@H](CN)O1 (relative stereo)
pKi [1]: 5.41
pIC50 [2]: 4.78
pKi [6]: 8.40
pIC50 [4]: 7.08

COc1ccc(CCC2CCC(CCN)O2)c2ccccc12 (configuration not stated)
pKi [1]: < 5.00
pKi [7]: < 5.00

NCCC1CCC(Cc2ccccc2)O1 (configuration not stated)
pKi [1]: < 5.00
pKi [7]: < 5.00

COc1ccc(F)cc1C1CCC(CN)O1 (configuration not stated)
pIC50 [2]: < 5.00

COc1ccc(F)cc1CC[C@H]1CC[C@H](CN)O1
pKi [1]: 4.84

COc1ccc(F)cc1C[C@@H]1CC[C@H](CCN)O1 (relative stereo)
pIC50 [3]: 5.73

NCC1CCC(CCc2c(F)c(F)c(F)c(F)c2F)O1 (configuration not stated)
pKi [1]: < 5.00

NCC1CCC(CCc2cccc3ccccc23)O1 (configuration not stated)
pKi [1]: < 5.00
pIC50 [2]: < 5.00
pKi [6]: 7.74
pKi [7]: < 5.00

COc1ccc(F)cc1CCC[C@H]1CC[C@H](CN)O1 (relative stereo)
pIC50 [2]: 5.12
pKi [6]: 9.10
pIC50 [4]: 8.68

CC(C)(C)c1ccc(C2CCC(CN)O2)cc1 (configuration not stated)
pKi [1]: < 5.00
pKi [6]: < 5.00
